According to patent US7098007B2, “Cloning and functional assays of Xenopus ATR” (California Institute of Technology, priority 2001, dated 2006):
Entries after “also recorded” stand apart in the source; their conditions may differ.

Tests used:
Xatr [1] = molecular target: T1, Xatr (Xenopus laevis, UniProt Q9DE14); assay: Binding of Xatr to single-stranded and double-stranded DNA cellulose in egg cytosol; design: we examined the association of Xatr with both single and double-stranded DNA in Xenopus egg extracts; from tissue; host or cells: Xenopus interphase egg cytosol; details: 50 μL cytosol, with or without APH
Method: In order to functionally characterize Xatr, we examined the association of Xatr with both single and double-stranded DNA in Xenopus egg extracts, under a variety of conditions. […] Briefly, control cellulose, single-stranded DNA cellulose, or double-stranded DNA cellulose were incubated with 50 μL of cytosol in the presence or absence of APH or PCL. Washed cellulose beads were boiled in gel loading buffer, and half of this was subjected to immunoblot analysis using an Xatr polyclonal antibody prepared in Example 1.
Preparation of DNA cellulose: M13 DNA (single-stranded DNA) was prepared according to the manufacturers instructions (Amersham). pBS plasmids (pBluescript—double stranded DNA) were prepared by a standard alkaline lysis procedure. 1 mg of M13 DNA or pBluescript DNA in 1 mL of TE buffer (10 mM Tris-HCL, 1 mM EDTA at pH 8.0) was incubated with 0.3 grams of cellulose for 5 minutes at 23° C. Following incubation, the preparation was lyophilized for 18 hours. The resulting lyophilized powder was resuspended in 20 volumes of TE, incubated at 4° C. for 24 hours, washed with TE, and frozen at −70° C. until use. Naked control cellulose was prepared under the same conditions, however, the addition of either single or double stranded DNA was omitted.
Binding of Xatr to DNA cellulose: 25–100 μL of DNA cellose was incubated with 50–500 μL of interphase egg cytosol for 40 minutes at 23° C. […]

Xchk1 = assay: Phosphorylation of Xchk1 in Xenopus egg extracts; type: biochemical
Method: To address this question, we first measured phosphorylation of Xchk1 in egg extracts undergoing a checkpoint delay in response to a block to DNA replication. […] Briefly, ^35S-labeled wildtype or mutant Xchk1 (T314A, S344A, T314A+S344A, S356A, S365A, S356A+S365A, 4AQ) protein was incubated with egg extracts in the presence or absence of aphidicolin. ^35S labeled proteins were isolated and analyzed by gel electrophoresis for a phosphorylation-dependent shift in mobility.
Using the S344-p antibodies, we examined in more detail the phosphorylation of Xchk1 expressed in egg extracts. […] Following the incubation, the recombinant proteins were reisolated with glutathione agarose and detected by immunoblot with anti-GST antibodies and anti-S344-p antibodies.
Following 90 minute incubation, the preparation was diluted in 400 μL of dilution buffer (10 mM HEPES at pH 7.5, 150 mM NaCl, 20 mM β-glycerolphosphate, 2.5 mM EGTA, and 0.1% CHAPS). Recombinant Xchk1 proteins were isolated with glutathione agarose, washed, eluted, subjected to SDS-PAGE, and immunoblotted with either anti-GST antibodies (Santa Cruz Biotechnology) or anti-S344-p antibodies.

Xatr [2] = molecular target: T1, Xatr; assay: Xatr kinase assay: phosphorylation of model substrate PHAS-I by anti-Xatr immunoprecipitates; type: biochemical; design: Xatr was immunoprecipitated from Xenopus egg extracts using an anti-Xatr antibody; from tissue; host or cells: Xenopus egg extracts (immunoprecipitate with anti-peptide 1617-1630 antibody); details: 0.04, 0.2, 1 or 5 mM caffeine; anti-Xatr immunoprecipitates from egg extracts; autoradiography
Method: Given the conservation of the PIK-related kinase domain among ATR homologs, we characterized the kinase activity of Xatr. Xatr was immunoprecipitated from Xenopus egg extracts using an anti-Xatr antibody (as described in Example 1).
To further assess the relationship between Xatr and other PIK-related kinases, we next assessed the effects of caffeine on the kinase activity of Xatr. […] Briefly, kinase assays were performed by incubating anti-Xatr immunoprecipitates (lanes 1–5) or control immunoprecipitates (lanes 6–10) with the model substrate PHAS-I, in the presence of 0 (lanes 1 and 6), 0.04 mM (lanes 5 and 10), 0.2 mM (lanes 4 and 9), 1 mM (lanes 3 and 8) or 5 mM (lanes 2 and 7) caffeine. Proteins were subjected to SDS-PAGE and visualized by silver staining (bottom panel). Phosphorylation of PHAS-I was detected by autoradiography (middle panel).
METHODS: Polyclonal antibodies generated against an Xatr peptide ([…], SEQ ID NO: 11), as shown in Example 1, were used to immunoprecipitate Xatr. Immunoprecipitation and kinase assays were performed using standard methods, and as previously shown (Guo and Dunphy (2000) Mol. Biol Cell 11: 1535–1546).

TOR = TOR (Homo sapiens, UniProt P42345); details: cited from earlier work
ATR = ATR (Homo sapiens, UniProt Q13535); details: cited from earlier work
ATM = ATM (Homo sapiens, UniProt Q13315); details: cited from earlier work

T1 sequence (Q9DE14 whole entry Y191C/P249S/H2082P/D2362G): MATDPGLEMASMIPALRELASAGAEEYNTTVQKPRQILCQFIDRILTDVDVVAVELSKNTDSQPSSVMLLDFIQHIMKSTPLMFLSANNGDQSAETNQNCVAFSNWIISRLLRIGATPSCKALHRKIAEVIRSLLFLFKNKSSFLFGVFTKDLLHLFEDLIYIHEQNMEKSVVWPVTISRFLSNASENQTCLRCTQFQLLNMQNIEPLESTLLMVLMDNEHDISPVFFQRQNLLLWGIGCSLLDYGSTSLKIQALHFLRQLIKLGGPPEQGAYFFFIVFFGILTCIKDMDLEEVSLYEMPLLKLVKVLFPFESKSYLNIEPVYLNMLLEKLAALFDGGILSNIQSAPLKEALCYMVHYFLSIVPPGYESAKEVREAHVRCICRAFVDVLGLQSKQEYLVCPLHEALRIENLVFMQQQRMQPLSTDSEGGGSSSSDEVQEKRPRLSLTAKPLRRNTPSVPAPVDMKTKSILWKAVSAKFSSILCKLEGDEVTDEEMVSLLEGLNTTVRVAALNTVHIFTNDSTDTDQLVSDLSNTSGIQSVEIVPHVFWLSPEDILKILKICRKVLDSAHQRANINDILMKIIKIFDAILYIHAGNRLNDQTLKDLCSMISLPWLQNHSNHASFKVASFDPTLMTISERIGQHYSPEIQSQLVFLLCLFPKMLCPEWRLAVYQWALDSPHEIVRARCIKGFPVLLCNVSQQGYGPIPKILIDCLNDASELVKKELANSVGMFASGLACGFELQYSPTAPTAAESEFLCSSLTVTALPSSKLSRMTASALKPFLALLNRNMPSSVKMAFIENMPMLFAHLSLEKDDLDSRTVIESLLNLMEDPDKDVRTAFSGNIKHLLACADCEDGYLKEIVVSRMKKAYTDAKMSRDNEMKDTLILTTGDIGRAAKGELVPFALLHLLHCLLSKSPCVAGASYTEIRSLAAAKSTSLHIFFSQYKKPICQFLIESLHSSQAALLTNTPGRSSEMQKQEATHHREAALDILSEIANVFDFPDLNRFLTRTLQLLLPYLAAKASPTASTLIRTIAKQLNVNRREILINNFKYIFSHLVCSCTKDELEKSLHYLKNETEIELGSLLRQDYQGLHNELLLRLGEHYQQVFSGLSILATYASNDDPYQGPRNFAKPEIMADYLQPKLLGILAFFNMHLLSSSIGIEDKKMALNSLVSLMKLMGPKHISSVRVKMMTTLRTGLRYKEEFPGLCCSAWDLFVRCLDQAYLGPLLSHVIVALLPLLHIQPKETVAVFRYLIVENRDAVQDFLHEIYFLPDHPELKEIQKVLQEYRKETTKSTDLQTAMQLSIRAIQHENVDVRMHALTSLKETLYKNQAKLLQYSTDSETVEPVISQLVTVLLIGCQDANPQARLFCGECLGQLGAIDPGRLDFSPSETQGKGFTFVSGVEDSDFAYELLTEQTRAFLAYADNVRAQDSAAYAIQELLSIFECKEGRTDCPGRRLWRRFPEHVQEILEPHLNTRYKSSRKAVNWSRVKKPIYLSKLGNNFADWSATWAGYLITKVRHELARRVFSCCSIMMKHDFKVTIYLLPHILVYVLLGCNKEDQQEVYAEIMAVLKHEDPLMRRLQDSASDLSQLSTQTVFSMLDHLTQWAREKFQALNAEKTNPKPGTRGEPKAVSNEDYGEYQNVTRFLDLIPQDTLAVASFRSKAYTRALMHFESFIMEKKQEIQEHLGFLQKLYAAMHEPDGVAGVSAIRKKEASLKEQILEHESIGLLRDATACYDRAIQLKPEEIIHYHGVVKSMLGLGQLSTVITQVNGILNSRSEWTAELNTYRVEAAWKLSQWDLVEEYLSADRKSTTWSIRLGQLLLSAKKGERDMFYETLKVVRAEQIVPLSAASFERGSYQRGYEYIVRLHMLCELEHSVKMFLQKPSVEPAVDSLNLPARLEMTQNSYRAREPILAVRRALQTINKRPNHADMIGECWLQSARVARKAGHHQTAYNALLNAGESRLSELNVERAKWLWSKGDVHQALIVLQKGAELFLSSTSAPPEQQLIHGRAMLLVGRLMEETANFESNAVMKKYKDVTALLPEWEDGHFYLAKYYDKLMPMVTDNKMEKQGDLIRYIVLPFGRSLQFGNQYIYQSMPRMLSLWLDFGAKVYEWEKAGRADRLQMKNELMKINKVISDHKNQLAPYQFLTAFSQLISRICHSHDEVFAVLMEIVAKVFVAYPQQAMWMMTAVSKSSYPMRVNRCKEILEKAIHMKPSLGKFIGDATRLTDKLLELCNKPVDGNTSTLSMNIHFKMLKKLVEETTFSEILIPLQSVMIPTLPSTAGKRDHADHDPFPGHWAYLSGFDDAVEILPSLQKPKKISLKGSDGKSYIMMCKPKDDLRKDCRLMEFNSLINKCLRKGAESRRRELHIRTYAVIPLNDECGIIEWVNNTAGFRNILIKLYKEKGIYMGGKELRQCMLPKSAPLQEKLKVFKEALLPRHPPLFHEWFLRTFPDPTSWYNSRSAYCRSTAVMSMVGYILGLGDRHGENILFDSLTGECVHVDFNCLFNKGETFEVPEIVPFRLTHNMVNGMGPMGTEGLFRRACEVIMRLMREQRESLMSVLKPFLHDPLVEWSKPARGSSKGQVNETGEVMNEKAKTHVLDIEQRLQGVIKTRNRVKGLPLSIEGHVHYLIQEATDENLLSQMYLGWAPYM

With `C[C@@]1(CO)[C@H](O)CC[C@@]2(C)[C@H]1CC[C@H]1C[C@@H]3C[C@@]12CC[C@]3(O)CO` [aphidicolin] as the molecule, how does the “interaction of Xatr with DNA cellulose” value (Xatr [1]) read?
The value was “occurs in the presence or the absence”.

What about the “phosphorylation of wildtype Xchk1 at Ser 344 (anti-S344-p immunoblot)” value (Xchk1; 100 μg/mL aphidicolin and sperm nuclei, 90 minutes, interphase extract) of the same molecule?
The value was “phosphorylated at position 344”.

What about the “phosphorylation of wildtype Xchk1 (phosphorylation-dependent shift in mobility)” value (Xchk1; 35S-labeled Xchk1 in egg extracts, presence versus absence of aphidicolin) of the same molecule?
The value was “phosphorylated”.

Which “kinase activity of Xatr (phosphorylation of PHAS-I)” value (Xatr [2]) does the source give for `Cn1c(=O)c2c(ncn2C)n(C)c1=O` [caffeine] here?
Its value is “significant decrease in phosphorylation of PHAS-I; also recorded: sensitive”.

And the “kinase activity of TOR, sensitivity to caffeine” value (TOR)?
The value was “sensitive”.

And the “kinase activity of ATR, sensitivity to caffeine” value (ATR)?
Its value is “sensitive”.

And the “kinase activity of ATM, sensitivity to caffeine” value (ATM)?
Its value is “sensitive”.

What about the “half-maximal dose for inhibition of Xchk1 phosphorylation, compared with inhibition of Xatr kinase activity” value (Xchk1; egg extracts treated with aphidicolin, compared with FIG. 3D) of the same molecule?
The value was “approximately the same half-maximal dose”.

And the “phosphorylation of Xchk1 in response to unreplicated DNA” value (Xchk1; egg extracts treated with aphidicolin, increasing concentrations of caffeine)?
The value was “inhibited”.
